Molecules are shown by their SMILES. Where two headings read alike, the source gives them in different places.

Here are results for 22 molecules from patent US10800792B2, “Inhibitors of Bruton's tyrosine kinase and method of their use” (JANSSEN PHARMACEUTICA NV, priority 2015, dated 2020).

The target of the experiment is unphosphorylated-BTK kinase domain (UP-BTK), GST-tagged human BTK (389-659aa) (Homo sapiens (Human), UniProt Q06187). Put plainly: BTK kinase Lanthascreen binding assay. The note with it: pIC50 = negative log of the IC50 in molar; for IC50: read-out: BTK_I_binding pIC50 (converted). The method, then:
BTK Kinase Lanthascreen Binding Assay:
A BTK kinase lanthascreen binding assay monitors compound binding to unphosphorylated-BTK kinase domain (UP-BTK), by competing with a fluorescent labeled tracer. […] Data were analyzed using Xlfit™ version 5.3 from ID Business Solutions (Guildford), Microsoft Excel add-in. pIC50 refers to the negative log of the IC50 in molar
In general terms: TR-FRET usually uses a lanthanide donor and a delayed reading to cut background.

Where [1] appears, read: 60 minutes incubation, 50 nM Tracer 236.
Setting [2] is: unphosphorylated-BTK kinase domain, 50 nM Tracer 236, 60 minutes.
Where [3] appears, read: Lanthascreen tracer competition, 60 minutes incubation.

unphosphorylated-BTK kinase domain (UP-BTK), GST-tagged human BTK (389-659aa), sequence (Q06187 389-659): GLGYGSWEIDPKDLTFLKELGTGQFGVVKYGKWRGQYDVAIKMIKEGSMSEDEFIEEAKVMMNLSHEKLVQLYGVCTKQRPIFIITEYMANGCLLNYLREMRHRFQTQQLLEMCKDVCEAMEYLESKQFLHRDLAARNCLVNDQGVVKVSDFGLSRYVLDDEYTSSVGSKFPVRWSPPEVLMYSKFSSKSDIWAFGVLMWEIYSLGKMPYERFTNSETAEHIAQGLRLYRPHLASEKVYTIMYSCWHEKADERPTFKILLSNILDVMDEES

`Cc1cc(Oc2cccc(COc3ccccc3C#N)c2)ccc1N1C(=O)Nc2c(C(=O)N[C@@H]3CCCN(C)C3)sc3nccc1c23` (mixture of isomers) [Example 24, (R)-5-(4-(3-((2-Cyanophenoxy)methyl)phenoxy)-2-methylphenyl)-N-(1-methylpiperidin-3-yl)-4-oxo-4,5-dihydro-3H-1-thia-3,5,8-triazaacenaphthylene-2-carboxamide]: the “BTK_I_binding pIC50” value under setting [1] amounted to 7.7.
For the molecule `CCOC(C)(C)C=C(C#N)C(=O)N1CCC[C@@H](NC(=O)c2sc3nccc4c3c2NC(=O)N4c2ccc(Oc3ccccc3)cc2C)C1` (mixture of isomers) [Example 29, (R,EZ)—N-(1-(2-Cyano-4-ethoxy-4-methylpent-2-enoyl)piperidin-3-yl)-5-(2-methyl-4-phenoxyphenyl)-4-oxo-4,5-dihydro-3H-1-thia-3,5,8-triazaacenaphthylene-2-carboxamide], the IC50 under setting [1] was 50.1 nM.
`Cc1cc(Oc2ccccc2)ccc1N1C(=O)Nc2c(C(=O)NC3CC[C@@H](C)N(C)C3)sc3nccc1c23` (mixture of isomers) [Example 92, N-(1,6-Dimethylpiperidin-3-yl)-5-(2-methyl-4-phenoxyphenyl)-4-oxo-4,5-dihydro-3H-1-thia-3,5,8-triazaacenaphthylene-2-carboxamide]: under setting [1], the “BTK_I_binding pIC50” value is reported as 6.8.
The same measure, in the same setting: as for `Cc1cc(Oc2ccccc2)ccc1N1C(=O)Nc2c(C(=O)NC3CC[C@H](C)NC3)sc3nccc1c23` (mixture of isomers) [Example 153, 5-(2-Methyl-4-phenoxyphenyl)-N-((6S)-6-methylpiperidin-3-yl)-4-oxo-4,5-dihydro-3H-1-thia-3,5,8-triazaacenaphthylene-2-carboxamide], the figure is 6.8.
On to `Cc1cc(Oc2ccccc2)ccc1N1C(=O)Nc2c(C(=O)NC3CC[C@@H](C)NC3)sc3nccc1c23` (mixture of isomers) [Example 173, 5-(2-Methyl-4-phenoxyphenyl)-N-((6R)-6-methylpiperidin-3-yl)-4-oxo-4,5-dihydro-3H-1-thia-3,5,8-triazaacenaphthylene-2-carboxamide], for which, under setting [1], the IC50 is 158 nM.
Consider `CCO/C=C/C(=O)N1CCC[C@@H](NC(=O)c2sc3nccc4c3c2NC(=O)N4c2ccc(Oc3ccccc3)cc2C)C1` (mixture of isomers) [Example 221, (R,E)-N-(1-(3-Ethoxyacryloyl)piperidin-3-yl)-5-(2-methyl-4-phenoxyphenyl)-4-oxo-4,5-dihydro-3H-1-thia-3,5,8-triazaacenaphthylene-2-carboxamide], for which the “BTK_I_binding pIC50” value under setting [1] is recorded as 6.9.
Still for that read-out and setting: for `COC=C(C#N)C(=O)N1CCC[C@@H](NC(=O)c2sc3nccc4c3c2NC(=O)N4c2ccc(Oc3ccccc3)cc2C)C1` (mixture of isomers) [Example 231, (R,EZ)—N-(1-(2-Cyano-3-methoxyacryloyl)piperidin-3-yl)-5-(2-methyl-4-phenoxyphenyl)-4-oxo-4,5-dihydro-3H-1-thia-3,5,8-triazaacenaphthylene-2-carboxamide] the value was 6.8.
Regarding `COCCNC(C)(C)C=C(C#N)C(=O)N1CCC[C@@H](NC(=O)c2sc3nccc4c3c2NC(=O)N4c2ccc(Oc3ccccc3)cc2C)C1` (mixture of isomers) [Example 234, (R,EZ)—N-(1-(2-Cyano-4-((2-methoxyethyl)amino)-4-methylpent-2-enoyl)piperidin-3-yl)-5-(2-methyl-4-phenoxyphenyl)-4-oxo-4,5-dihydro-3H-1-thia-3,5,8-triazaacenaphthylene-2-carboxamide], the “BTK_I_binding pIC50” value under setting [1] amounted to 7.2.
As to `Cc1cc(Oc2ccccc2)ccc1N1C(=O)Nc2c(C(=O)N[C@@H]3CCCN(C(=O)C(=CC4CC4)C(F)(F)F)C3)sc3nccc1c23` (mixture of isomers) [Example 313, (R,EZ)—N-(1-(3-Cyclopropyl-2-(trifluoromethyl)acryloyl)piperidin-3-yl)-5-(2-methyl-4-phenoxyphenyl)-4-oxo-4,5-dihydro-3H-1-thia-3,5,8-triazaacenaphthylene-2-carboxamide], under setting [2], the “BTK_I_binding pIC50” value is listed as 5.9.
As to `Cc1cc(Oc2ccccc2)ccc1N1C(=O)Nc2c(C(=O)N[C@@H]3CCCN(C(=O)C(Cl)=CC4CC4)C3)sc3nccc1c23` (mixture of isomers) [Example 402, (R,EZ)—N-(1-(2-Chloro-3-cyclopropylacryloyl)piperidin-3-yl)-5-(2-methyl-4-phenoxyphenyl)-4-oxo-4,5-dihydro-3H-1-thia-3,5,8-triazaacenaphthylene-2-carboxamide], under setting [2], the “BTK_I_binding pIC50” value was determined as 6.5.
On to `C=CC(=O)N1CCC[C@@H](NC(=O)c2sc3nccc4c3c2NC(=O)N4c2cnc(CC(C)C)cc2C)C1` (mixture of isomers) [Example 671, (R)—N-(1-Acryloylpiperidin-3-yl)-5-(6-isobutyl-4-methylpyridin-3-yl)-4-oxo-4,5-dihydro-3H-1-thia-3,5,8-triazaacenaphthylene-2-carboxamide], for which, under setting [3], the IC50 is 25.1 nM.
Regarding `Cc1cc(Oc2ccccc2)ncc1N1C(=O)Nc2c(C(=O)N[C@@H]3COC[C@@H]3N)sc3nccc1c23` (racemic) [Example 707], the IC50 under setting [3] was 200 nM.
For the molecule `Cc1ccc(Oc2ccccc2)cc1N1C(=O)Nc2c(C(=O)N[C@@H]3CCCN(C(=O)/C(C#N)=C/C4CC4)C3)sc3nccc1c23` (racemic) [Example 875, (E)-N-(1-(2-Cyano-3-cyclopropylacryloyl)piperidin-3-yl)-5-(2-methyl-5-phenoxyphenyl)-4-oxo-4,5-dihydro-3H-1-thia-3,5,8-triazaacenaphthylene-2-carboxamide], under setting [3], the “BTK_I_binding pIC50” value is given as 7.2.
For the molecule `CO[C@@H]1CNC[C@H](NC(=O)c2sc3nccc4c3c2NC(=O)N4c2ccc(Oc3ccccc3)cc2C)C1` (relative stereo) [Example 467, N-((3R,5S)-5-Methoxypiperidin-3-yl)-5-(*S)-(2-methyl-4-phenoxyphenyl)-4-oxo-4,5-dihydro-3H-1-thia-3,5,8-triazaacenaphthylene-2-carboxamide], the “BTK_I_binding pIC50” value under setting [2] is 7.0.
For the molecule `CO[C@@H]1CNC[C@H](NC(=O)c2sc3nccc4c3c2NC(=O)N4c2ccc(Oc3ccccc3)cc2C)C1` (relative stereo) [Example 468, N-((3R,5S)-5-Methoxypiperidin-3-yl)-5-(*R)-(2-methyl-4-phenoxyphenyl)-4-oxo-4,5-dihydro-3H-1-thia-3,5,8-triazaacenaphthylene-2-carboxamide], under setting [2], the “BTK_I_binding pIC50” value was 5.9.
On the same count and under the same terms, for `C=CC(=O)N1C[C@@H](O)[C@@H](NC(=O)c2sc3nccc4c3c2NC(=O)N4c2ccc(Oc3ccccc3)cc2C)C1` (relative stereo) [Example 489, N-((3S,4R)-1-Acryloyl-4-hydroxypyrrolidin-3-yl)-5-(*S)-(2-methyl-4-phenoxyphenyl)-4-oxo-4,5-dihydro-3H-1-thia-3,5,8-triazaacenaphthylene-2-carboxamide] the value was 7.6.
The same measure, in the same setting: as for `C=CC(=O)N1C[C@H](F)C[C@@H](NC(=O)c2sc3nccc4c3c2NC(=O)N4c2ccc(Oc3ccccc3)cc2C)C1` (relative stereo) [Example 499, N-((3R,5R)-1-Acryloyl-5-fluoropiperidin-3-yl)-5-(*S)-(2-methyl-4-phenoxyphenyl)-4-oxo-4,5-dihydro-3H-1-thia-3,5,8-triazaacenaphthylene-2-carboxamide], the figure is 7.9; as for `C=CC(=O)N1C[C@H](NC(=O)c2sc3nccc4c3c2NC(=O)N4c2ccc(Oc3ccccc3)cc2C)[C@@H](O)C1` (relative stereo) [Example 523, N-((3S,4S)-1-Acryloyl-4-hydroxypyrrolidin-3-yl)-5-(*S)-(2-methyl-4-phenoxyphenyl)-4-oxo-4,5-dihydro-3H-1-thia-3,5,8-triazaacenaphthylene-2-carboxamide], 7.5.
`O=C(N[C@@H]1CCNC[C@H]1O)c1sc2nccc3c2c1NC(=O)N3c1ccc(Oc2ccccc2)cc1` (relative stereo) [Example 615, N-(trans-3-Hydroxypiperidin-4-yl)-4-oxo-5-(4-phenoxyphenyl)-4,5-dihydro-3H-1-thia-3,5,8-triazaacenaphthylene-2-carboxamide]: the IC50 under setting [3] was 794 nM.
The same measure, in the same setting: as for `CC(C)(C)OC(=O)N1CC[C@@H](NC(=O)c2sc3nccc4c3c2NC(=O)N4c2ccc(Oc3ccccc3)cc2)[C@H](O)C1` (relative stereo) [Example 617, trans-tert-Butyl 3-hydroxy-4-(4-oxo-5-(4-phenoxyphenyl)-4,5-dihydro-3H-1-thia-3,5,8-triazaacenaphthylene-2-carboxamido)piperidine-1-carboxylate], the figure is 1000 nM; as for `O=C(N[C@@H]1CCNC[C@@H]1O)c1sc2nccc3c2c1NC(=O)N3c1ccc(Oc2ccccc2)cc1` (relative stereo) [Example 659, N-(cis-3-Hydroxypiperidin-4-yl)-4-oxo-5-(4-phenoxyphenyl)-4,5-dihydro-3H-1-thia-3,5,8-triazaacenaphthylene-2-carboxamide], 251 nM.
Consider `C=CC(=O)N1C[C@H](O)C[C@@H](NC(=O)c2sc3nccc4c3c2NC(=O)N4c2ccc(Oc3ccccc3)cc2C)C1` (single isomer, unassigned) [Example 2, N-((3R,5S)-1-Acryloyl-5-hydroxypiperidin-3-yl)-5-(*S)-(2-methyl-4-phenoxyphenyl)-4-oxo-4,5-dihydro-3H-1-thia-3,5,8-triazaacenaphthylene-2-carboxamide], for which the “BTK_I_binding pIC50” value under setting [1] is 8.2.
